14 compounds from ChEMBL document CHEMBL1128455, “Ribose-modified adenosine analogues as potential partial agonists for the adenosine receptor” (J Med Chem, 1995) can be followed below.

SMILES strings stand for the structures.

In experiment [1] the target is T1, Adenosine receptor A1 (Rattus norvegicus, UniProt P25099).
T1 sequence (P25099 whole entry): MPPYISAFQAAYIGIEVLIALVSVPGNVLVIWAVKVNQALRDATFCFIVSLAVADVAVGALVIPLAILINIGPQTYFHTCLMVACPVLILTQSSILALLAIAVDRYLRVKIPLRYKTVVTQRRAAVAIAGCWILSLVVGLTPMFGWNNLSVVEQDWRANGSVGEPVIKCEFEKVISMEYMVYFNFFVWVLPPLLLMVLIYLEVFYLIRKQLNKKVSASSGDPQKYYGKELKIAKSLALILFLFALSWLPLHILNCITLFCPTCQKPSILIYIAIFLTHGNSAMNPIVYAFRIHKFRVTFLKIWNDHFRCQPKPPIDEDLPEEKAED
Description: Affinity for the Adenosine A1 receptor in the presence of GTP (A1+GTP) by using [3H]-DPCPX as radioligand

Experiment [2] concerns the target T1, Adenosine receptor A1. This is another data set of the same source.
Description: Affinity for the Adenosine A1 receptor in the absence of GTP (A1-GTP) by using [3H]DPCPX as radioligand
In the next experiment the target is Adenosine receptor A2a (Rattus norvegicus, UniProt P30543). Nature of the experiment: Binding affinity against Adenosine A2A receptor by using [3H]CGS-21680 as radioligand.
Another experiment is filed under the species Rattus norvegicus. Nature of the experiment: GTP shift was determined in rat. It counts as functional.

Adenosine receptor A2a, sequence (P30543 whole entry): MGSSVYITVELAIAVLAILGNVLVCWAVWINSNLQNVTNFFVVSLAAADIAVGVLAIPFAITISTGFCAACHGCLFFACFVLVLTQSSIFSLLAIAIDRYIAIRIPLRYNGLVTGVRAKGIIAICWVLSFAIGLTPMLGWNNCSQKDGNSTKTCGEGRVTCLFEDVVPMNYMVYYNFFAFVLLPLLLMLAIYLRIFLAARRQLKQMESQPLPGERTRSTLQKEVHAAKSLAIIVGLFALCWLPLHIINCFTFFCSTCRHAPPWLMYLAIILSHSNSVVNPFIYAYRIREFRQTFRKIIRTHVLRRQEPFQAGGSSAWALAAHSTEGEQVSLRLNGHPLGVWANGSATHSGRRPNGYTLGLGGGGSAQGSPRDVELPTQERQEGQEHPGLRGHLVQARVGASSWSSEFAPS

Usually Ki stands for a measure of affinity in units of concentration, obtained from inhibition or displacement. High values mean weaker binding, low ones tighter binding. On to `C[C@H](Cc1ccccc1)Nc1ncnc2c1ncn2C1CC(O)C(CO)O1` (stereo partly specified), for which the Ki at Adenosine receptor A1 [1] is 14.4 µM; at Adenosine receptor A1 [2], 8.45 µM. In addition, the “% radioligand bound” value on Adenosine receptor A2a is reported as 86%. For the same compound, in the experiment listed under Rattus norvegicus, the GTP shift was 1.7.

For the compound `C[C@@H](Cc1ccccc1)Nc1ncnc2c1ncn2C1CC(O)C(CO)O1` (stereo partly specified), on Adenosine receptor A2a, the “% radioligand bound” value is 91%.

Regarding `C[C@H]1OC(n2cnc3c(NC4CCCC4)ncnc32)[C@H](O)[C@@H]1O` (stereo partly specified), the Ki on Adenosine receptor A1 [1] is 0.45 µM; on Adenosine receptor A1 [2], 0.07 µM; at Adenosine receptor A2a, 10.1 µM. In the experiment listed under Rattus norvegicus, the GTP shift is given as 6.4.

As for `OC[C@H]1O[C@@H](n2cnc3c(NC4CCCCC4)ncnc32)C[C@@H]1O`, the Ki was found to be 22.8 µM at Adenosine receptor A1 [1] and 8.94 µM on Adenosine receptor A1 [2]. Further, the “% radioligand bound” value at Adenosine receptor A2a is recorded as 90%. Further, in the experiment filed under Rattus norvegicus, the GTP shift worked out at 2.6.

On to `OC[C@H]1O[C@@H](n2cnc3c(NC4CCCC4)ncnc32)C[C@@H]1O`, for which the Ki worked out at 7.6 µM on Adenosine receptor A1 [1] and 1.87 µM at Adenosine receptor A1 [2]. In addition, the “% radioligand bound” value on Adenosine receptor A2a is reported as 88%. In addition, the GTP shift in the experiment filed under Rattus norvegicus turned out to be 4.1.

Regarding `C[C@H](Cc1ccccc1)Nc1ncnc2c1ncn2[C@@H]1O[C@H](CO)C[C@H]1O`, the values for the Ki on Adenosine receptor A1 [1], at Adenosine receptor A1 [2] and at Adenosine receptor A2a were 1.01 µM, 0.35 µM and 7.36 µM, respectively. Besides, in the experiment listed under Rattus norvegicus, the GTP shift stood at 2.9.

Take `OC[C@@H]1C[C@@H](O)[C@H](n2cnc3c(NC4CCCC4)ncnc32)O1`: the results for the Ki at Adenosine receptor A1 [1], at Adenosine receptor A1 [2] and at Adenosine receptor A2a were 0.47 µM, 0.11 µM and 18.6 µM, respectively. For the same compound, the GTP shift in the experiment listed under Rattus norvegicus is on record as 4.3.

As to `C[C@@H](Cc1ccccc1)Nc1ncnc2c1ncn2[C@@H]1O[C@H](CO)C[C@H]1O`, the Ki is 17.5 µM at Adenosine receptor A1 [1], 8.26 µM on Adenosine receptor A1 [2] and 57.2 µM at Adenosine receptor A2a. The GTP shift in the experiment listed under Rattus norvegicus turned out to be 2.1.

As to `OC[C@@H]1C[C@@H](O)[C@H](n2cnc3c(NC4CCCCC4)ncnc32)O1`, the inhibition constant Ki at Adenosine receptor A1 [1] was 1.26 µM; at Adenosine receptor A1 [2], 0.31 µM; at Adenosine receptor A2a, 22.1 µM. Also, in the experiment filed under Rattus norvegicus, the GTP shift was 4.1.

With `C[C@H](Cc1ccccc1)Nc1ncnc2c1ncn2C1O[C@H](C)[C@@H](O)[C@H]1O` (stereo partly specified), the Ki on Adenosine receptor A1 [1] was 1.07 µM; on Adenosine receptor A1 [2], 0.3 µM; at Adenosine receptor A2a, 3.67 µM. In the experiment filed under Rattus norvegicus, the GTP shift was 3.6.

For `Cn1cnc2c(N)ncnc21`, the Ki on Adenosine receptor A1 [1] stood at 14.7 µM; at Adenosine receptor A1 [2] it was 12.5 µM; at Adenosine receptor A2a, 8.6 µM. For the same compound, in the experiment listed under Rattus norvegicus, the GTP shift was 1.2.

Take `C[C@H]1O[C@@H](n2cnc3c(N)ncnc32)[C@H](O)[C@@H]1O` [5'-Deoxyadenosine]: the inhibition constant (Ki) at Adenosine receptor A1 [1] is 12.1 µM; at Adenosine receptor A1 [2], 1.82 µM. Further, the GTP shift in the experiment filed under Rattus norvegicus is on record as 6.6.

On to `Nc1ncnc2c1ncn2[C@@H]1O[C@H](CO)C[C@H]1O` [CORDYCEPIN], for which the GTP shift in the experiment listed under Rattus norvegicus is on record as 2.1.

Compound `OC[C@H]1O[C@@H](n2cnc3c(NC4CCCC4)ncnc32)[C@H](O)[C@@H]1O` [N6-CYCLOPENTYLADENOSINE] returned a Ki on Adenosine receptor A2a of 0.58 µM.
